Measurements taken from PubChem BioAssay AID248 (DTP/NCI, 2004).
Where “and” joins values, the source holds several entries; their conditions need not be identical. Equal values may be shown once. Inconclusive results and toxic doses are left out. Cut-off read from the data, not from the text of the source: active = T/C of 150% or more; inactive = T/C below 125%.

System: L1210 leukemia ip in BDF1 mice, survival T/C
Experiment: NCI In Vivo Anticancer Drug Screen. Data for tumor model L1210 Leukemia (intraperitoneal) in B6D2F1 (BDF1) mice
Conditions: endpoint: mean survival time, higher = longer survival
Outline: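 Tumor cells were implanted, animals were treated, and survival was followed. The result divides the treated measurement by the vehicle-control measurement.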

[1] = dose: 100.0 mg/kg/injection, schedule: Q01DX009 (ip), vehicle: saline with Tween-80
[2] = dose: 200.0 mg/kg/injection, schedule: Q01DX009 (ip), vehicle: saline with Tween-80
[3] = dose: 100.0 mg/kg/injection, schedule: Q01DX001 (ip), vehicle: carboxymethylcellulose (CMC)
[4] = dose: 200.0 mg/kg/injection, schedule: Q01DX001 (ip), vehicle: carboxymethylcellulose (CMC)
[5] = dose: 400.0 mg/kg/injection, schedule: Q01DX001 (ip), vehicle: carboxymethylcellulose (CMC)
[6] = dose: 100.0 mg/kg/injection, schedule: Q04DX003 (ip), vehicle: saline with Tween-80
[7] = dose: 200.0 mg/kg/injection, schedule: Q04DX003 (ip), vehicle: saline with Tween-80
[8] = dose: 400.0 mg/kg/injection, schedule: Q01DX009 (ip), vehicle: saline with Tween-80
[9] = dose: 400.0 mg/kg/injection, schedule: Q04DX003 (ip), vehicle: saline with Tween-80
[10] = dose: 200.0 mg/kg/injection, schedule: Q01DX001 (ip), vehicle: saline
[11] = dose: 100.0 mg/kg/injection, schedule: Q01DX001 (ip), vehicle: Klucel (hydroxypropylcellulose) (HPC)
[12] = dose: 200.0 mg/kg/injection, schedule: Q01DX001 (ip), vehicle: Klucel (hydroxypropylcellulose) (HPC)
[13] = dose: 400.0 mg/kg/injection, schedule: Q01DX001 (ip), vehicle: Klucel (hydroxypropylcellulose) (HPC)
[14] = dose: 100.0 mg/kg/injection, schedule: Q01DX009 (ip), vehicle: Klucel (hydroxypropylcellulose) (HPC)
[15] = dose: 100.0 mg/kg/injection, schedule: Q04DX003 (ip), vehicle: Klucel (hydroxypropylcellulose) (HPC)
[16] = dose: 200.0 mg/kg/injection, schedule: Q01DX009 (ip), vehicle: Klucel (hydroxypropylcellulose) (HPC)
[17] = dose: 200.0 mg/kg/injection, schedule: Q04DX003 (ip), vehicle: Klucel (hydroxypropylcellulose) (HPC)
[18] = dose: 400.0 mg/kg/injection, schedule: Q01DX009 (ip), vehicle: Klucel (hydroxypropylcellulose) (HPC)
[19] = dose: 400.0 mg/kg/injection, schedule: Q04DX003 (ip), vehicle: Klucel (hydroxypropylcellulose) (HPC)
[20] = dose: 100.0 mg/kg/injection, schedule: Q01DX009 (ip), vehicle: saline
[21] = dose: 100.0 mg/kg/injection, schedule: Q04DX002 (ip), vehicle: saline
[22] = dose: 200.0 mg/kg/injection, schedule: Q04DX002 (ip), vehicle: saline
[23] = dose: 400.0 mg/kg/injection, schedule: Q04DX002 (ip), vehicle: saline

Measured: T/C

CCCCCCCCCCCCP(=O)(O)O
inactive: dose: 75.0 mg/kg/injection, schedule: Q01DX001 (ip), vehicle: other 94 % of control | dose: 150.0 mg/kg/injection, schedule: Q01DX001 (ip), vehicle: other 97 % of control

COc1cc(C(C)=O)ccc1OCc1ccccc1
inactive: dose: 25.0 mg/kg/injection, schedule: Q01DX009 (ip), vehicle: saline with Tween-80 98 % of control and 107 % of control | dose: 50.0 mg/kg/injection, schedule: Q01DX009 (ip), vehicle: saline with Tween-80 96 % of control and 103 % of control | [1] 96 % of control and 101 % of control | [2] 93 % of control and 112 % of control

CC(=O)Nc1ccc2c(c1)-c1ccc(F)cc1C2=O
inactive: [3] 96 % of control | [4] 103 % of control | [5] 89 % of control

CC(C(O)c1ccccc1)N(C)/N=N/c1nc[nH]c1C(N)=O (configuration not stated)
inactive: dose: 100.0 mg/kg/injection, schedule: Q01DX001 (ip), vehicle: saline with Tween-80 92 % of control | [1] 98 % of control | [6] 98 % of control | dose: 200.0 mg/kg/injection, schedule: Q01DX001 (ip), vehicle: saline with Tween-80 90 % of control | [2] 103 % of control | [7] 102 % of control | dose: 400.0 mg/kg/injection, schedule: Q01DX001 (ip), vehicle: saline with Tween-80 92 % of control | [8] 107 % of control | [9] 102 % of control

OCC(O)C(O)C(O)C(O)C(c1ccccc1)c1ccccc1 (configuration not stated)
inactive: dose: 50.0 mg/kg/injection, schedule: Q01DX001 (ip), vehicle: saline 107 % of control | dose: 100.0 mg/kg/injection, schedule: Q01DX001 (ip), vehicle: saline 103 % of control | [10] 101 % of control | dose: 400.0 mg/kg/injection, schedule: Q01DX001 (ip), vehicle: saline 101 % of control

Nc1nc(N)c(N=Nc2ccc(S(=O)(=O)Nc3ccccn3)cc2)cc1N=Nc1ccccc1
inactive: [3] 94 % of control | [4] 102 % of control | [5] 103 % of control

O=C1c2ccccc2-c2c(O)cccc21
inactive: [11] 94 % of control | [12] 100 % of control | [13] 96 % of control

Cc1ccc(OS(=O)(=O)c2ccc([N+](=O)[O-])cc2)cc1
inactive: [14] 97 % of control | [15] 97 % of control | [16] 96 % of control | [17] 101 % of control | [18] 95 % of control | [19] 100 % of control

OC1C2CCN(CC2)C1C(c1ccccc1)c1ccc(F)cc1 (configuration not stated)
inactive: dose: 100.0 mg/kg/injection, schedule: Q04DX002 (ip), vehicle: Klucel (hydroxypropylcellulose) (HPC) 91 % of control | dose: 200.0 mg/kg/injection, schedule: Q04DX002 (ip), vehicle: Klucel (hydroxypropylcellulose) (HPC) 87 % of control

Cc1ccccc1CC1(Br)CC(C)(C)c2ccccc2C1=O (configuration not stated)
inactive: [15] 93 % of control | [17] 106 % of control | [19] 88 % of control

CCOC(=O)NC(=O)n1ncnc1N
inactive: dose: 100.0 mg/kg/injection, schedule: Q04DX003 (ip), vehicle: saline 108 % of control | dose: 200.0 mg/kg/injection, schedule: Q04DX003 (ip), vehicle: saline 103 % of control | dose: 400.0 mg/kg/injection, schedule: Q04DX003 (ip), vehicle: saline 94 % of control

CCCCCCCC(=O)N(CC)CC
inactive: dose: 25.0 mg/kg/injection, schedule: Q04DX002 (ip), vehicle: saline 103 % of control | dose: 50.0 mg/kg/injection, schedule: Q01DX009 (ip), vehicle: saline 97 % of control | dose: 50.0 mg/kg/injection, schedule: Q04DX002 (ip), vehicle: saline 103 % of control | [20] 101 % of control | [21] 100 % of control | [22] 100 % of control and 102 % of control | [23] 102 % of control

Cc1c(NC(=O)Nc2ccc(F)c([N+](=O)[O-])c2)c(=O)n(-c2ccccc2)n1C
inactive: [14] 102 % of control | [16] 96 % of control | [18] 103 % of control

Cc1c(C(C)(C)C)cc(C(C)(C)C)c(O)c1[N+](=O)[O-]
inactive: [3] 93 % of control and 95 % of control | dose: 100.0 mg/kg/injection, schedule: Q04DX002 (ip), vehicle: carboxymethylcellulose (CMC) 90 % of control and 91 % of control | dose: 100.0 mg/kg/injection, schedule: Q04DX003 (ip), vehicle: carboxymethylcellulose (CMC) 97 % of control and 98 % of control | [4] 95 % of control and 99 % of control and 111 % of control | dose: 200.0 mg/kg/injection, schedule: Q04DX002 (ip), vehicle: carboxymethylcellulose (CMC) 87 % of control and 89 % of control | dose: 200.0 mg/kg/injection, schedule: Q04DX003 (ip), vehicle: carboxymethylcellulose (CMC) 96 % of control and 90 % of control | [5] 94 % of control and 101 % of control and 105 % of control | dose: 400.0 mg/kg/injection, schedule: Q04DX002 (ip), vehicle: carboxymethylcellulose (CMC) 96 % of control and 111 % of control | dose: 400.0 mg/kg/injection, schedule: Q04DX003 (ip), vehicle: carboxymethylcellulose (CMC) 96 % of control and 87 % of control

O=C1OC(=O)c2cccc3cccc1c23
inactive: dose: 50.0 mg/kg/injection, schedule: Q01DX001 (ip), vehicle: Klucel (hydroxypropylcellulose) (HPC) 98 % of control | [11] 97 % of control | [12] 94 % of control | [13] 111 % of control

C[Si](C)(C)Oc1c(Cl)cc(Cl)cc1Cl
inactive: [6] 102 % of control | [7] 98 % of control | [9] 91 % of control

CCCCCCCCCCCC[Si](CCCCCCCCCCCC)(c1ccccc1)c1ccccc1
inactive: [1] 91 % of control | [2] 93 % of control | [8] 96 % of control

ClCCC(c1ccccc1)N1CCCCC1 (configuration not stated)
inactive: dose: 44.0 mg/kg/injection, schedule: Q01DX001 (ip), vehicle: saline 97 % of control and 106 % of control | dose: 66.0 mg/kg/injection, schedule: Q01DX001 (ip), vehicle: saline 96 % of control and 97 % of control | dose: 150.0 mg/kg/injection, schedule: Q01DX001 (ip), vehicle: saline 97 % of control and 92 % of control | [10] 93 % of control

NC(N)=N/N=C/c1cccc(Cl)c1
inactive: dose: 3.75 mg/kg/injection, schedule: Q01DX Z (ip), vehicle: saline 92 % of control | dose: 7.5 mg/kg/injection, schedule: Q01DX Z (ip), vehicle: saline 94 % of control | dose: 15.0 mg/kg/injection, schedule: Q01DX Z (ip), vehicle: saline 94 % of control | dose: 15.0 mg/kg/injection, schedule: Q01DX Z (oral), vehicle: saline 98 % of control | dose: 30.0 mg/kg/injection, schedule: Q01DX Z (ip), vehicle: saline 100 % of control | dose: 30.0 mg/kg/injection, schedule: Q01DX Z (oral), vehicle: saline 98 % of control | dose: 60.0 mg/kg/injection, schedule: Q01DX Z (oral), vehicle: saline 98 % of control | dose: 120.0 mg/kg/injection, schedule: Q01DX Z (oral), vehicle: saline 102 % of control

CC(=O)Nc1nc(=O)n(CC(=O)c2cccs2)cc1F
inactive: [1] 98 % of control | [6] 102 % of control | [2] 98 % of control | [7] 97 % of control | [9] 101 % of control

O=C1C=CC(=O)N1c1ccc(Cc2ccc(N3C(=O)C=CC3=O)cc2)cc1
inactive: dose: 26.6 mg/kg/injection, schedule: Q01DX Z (ip), vehicle: methylcellulose (MC) 90 % of control | dose: 40.0 mg/kg/injection, schedule: Q01DX Z (ip), vehicle: methylcellulose (MC) 95 % of control

CCCCCCCCCCCCCCCCOc1ccccc1C(C)=O
inactive: [1] 92 % of control | [6] 89 % of control | [2] 96 % of control | [7] 98 % of control | [8] 93 % of control | [9] 93 % of control

Nc1ccc(CCC(=O)NC(CCC(=O)O)C(=O)O)cc1 (configuration not stated)
inactive: [20] 102 % of control | [21] 98 % of control | dose: 200.0 mg/kg/injection, schedule: Q01DX009 (ip), vehicle: saline 108 % of control | [22] 105 % of control | dose: 400.0 mg/kg/injection, schedule: Q01DX009 (ip), vehicle: saline 96 % of control | [23] 94 % of control
